From ChEMBL document CHEMBL6121019, “Design, synthesis and biological evaluation of bisnoralcohol derivatives as novel IRF4 inhibitors for the treatment of multiple myeloma” (Eur J Med Chem, 2025)
Active and inactive are the calls of the source. The calls are words filed in the database; no cut-off is given here.

How the values were obtained:
[1] = molecular target: T1, Interferon regulatory factor 4 (Homo sapiens, UniProt Q15306); experiment: Binding affinity to IRF4 (unknown origin) assessed as dissociation constant by SPR analysis
T1 sequence (Q15306 whole entry): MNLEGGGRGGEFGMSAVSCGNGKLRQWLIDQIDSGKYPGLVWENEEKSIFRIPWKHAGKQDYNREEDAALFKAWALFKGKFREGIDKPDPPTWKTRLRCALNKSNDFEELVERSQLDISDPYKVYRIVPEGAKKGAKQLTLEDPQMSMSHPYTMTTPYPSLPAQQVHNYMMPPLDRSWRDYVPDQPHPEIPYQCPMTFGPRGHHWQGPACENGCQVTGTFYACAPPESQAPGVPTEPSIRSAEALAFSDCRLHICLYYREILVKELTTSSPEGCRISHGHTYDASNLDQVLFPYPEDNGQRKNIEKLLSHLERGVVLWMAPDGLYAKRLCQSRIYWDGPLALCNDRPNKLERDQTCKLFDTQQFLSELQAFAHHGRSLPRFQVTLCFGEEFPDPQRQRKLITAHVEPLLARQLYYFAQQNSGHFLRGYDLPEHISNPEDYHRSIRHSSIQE

[2] = molecular target: T2, Interferon regulatory factor 4 (Homo sapiens) (UniProt Q15306); experiment: Induction of thermal stabilization of IRF4 in human NCI-H929 cells at 42 to 42.3 degree C by […] method; assay type: cell-based
T2 sequence (whole entry): T1 sequence (Q15306 whole entry)

[3] = molecular target: T3, Interferon regulatory factor 3 (Homo sapiens) (UniProt Q14653); experiment: Induction of thermal stabilization of IRF3 in human NCI-H929 cells at 42 to 42.3 degree C by […] method; assay type: cell-based
T3 sequence (whole entry): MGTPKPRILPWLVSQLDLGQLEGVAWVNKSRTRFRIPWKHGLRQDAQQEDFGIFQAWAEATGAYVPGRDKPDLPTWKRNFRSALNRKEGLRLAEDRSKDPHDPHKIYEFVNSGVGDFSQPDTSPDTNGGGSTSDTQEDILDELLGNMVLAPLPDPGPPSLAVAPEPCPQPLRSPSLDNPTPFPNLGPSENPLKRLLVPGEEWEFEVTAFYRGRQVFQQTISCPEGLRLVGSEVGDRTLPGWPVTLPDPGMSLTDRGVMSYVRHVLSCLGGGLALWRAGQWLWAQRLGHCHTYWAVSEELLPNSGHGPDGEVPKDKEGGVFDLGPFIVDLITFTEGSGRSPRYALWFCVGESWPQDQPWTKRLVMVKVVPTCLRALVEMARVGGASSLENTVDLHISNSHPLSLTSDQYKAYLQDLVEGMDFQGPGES

NCI-H929 [4] = experiment: Antiproliferative activity against human NCI-H929 cells with siRNA mediated IRF4#2 knockdown at 0.125 to 1 uM measured upto 5 days by MTS assay; assay type: functional, cell-based; conditions: dose 0.125-1 µM, time <= 5.0 day
NCI-H929 [5] = experiment: Effect on IRF4 expression in human NCI-H929 cells by Western blot analysis; assay type: functional, cell-based
MM.1R [6] = experiment: Effect on IRF4 expression in human MM1.R cells by Western blot analysis; assay type: functional, cell-based
RPMI-8226 = experiment: Effect on IRF4 expression in human RPMI-8226 cells by Western blot analysis; assay type: functional, cell-based
[7] = Potency index, ratio of IC50 for lenalidomide to test compound IC50 for antiproliferative activity against human NCI-H929 cells assessed as inhibition of cell growth measured after 72 hrs by MTS assay; assay type: functional
NCI-H929 [8] = experiment: Antiproliferative activity against human NCI-H929 cells assessed as inhibition of 3D clone forming ability measured after 2 to 3 weeks; assay type: functional, cell-based; conditions: dose 0.125-1 µM, time 2-3 weeks
NCI-H929 [9] = experiment: Downregulation of CANX expression in human NCI-H929 cells measured after 24 hrs by qRT-PCR analysis; assay type: functional, cell-based; conditions: dose 0.125-1 µM
MM.1R [10] = experiment: Downregulation of E2F5 expression in human MM1.R cells measured after 24 hrs by qRT-PCR analysis; assay type: functional, cell-based; conditions: dose 0.125-1 µM
MM.1R [11] = experiment: Downregulation of CMYC expression in human MM1.R cells measured after 24 hrs by qRT-PCR analysis; assay type: functional, cell-based; conditions: dose 0.125-1 µM
NCI-H929 [12] = experiment: Induction of DNA damage in human NCI-H929 cells assessed as increase in gammaH2AX expression at 0.1 to 1 uM by Western blot analysis; assay type: functional, cell-based; conditions: dose 0.1-1 µM
MM.1R [13] = experiment: Induction of DNA damage in human MM1.R cells assessed as increase in gammaH2AX expression at 0.1 to 1 uM by Western blot analysis; assay type: functional, cell-based; conditions: dose 0.1-1 µM
NCI-H929 [14] = experiment: Induction of cell cycle arrest in human NCI-H929 cells assessed as accumulation of cells at G1 phase measured after 24 hrs by flow cytometry analysis; assay type: functional, cell-based; conditions: dose 0.125-0.5 µM
NCI-H929 [15] = experiment: Induction of cell cycle arrest in human NCI-H929 cells assessed as accumulation of cells at S phase at 0.125 uM measured after 24 hrs by flow cytometry analysis (reference value: 32.14%); assay type: functional
NCI-H929 [16] = experiment: Induction of cell cycle arrest in human NCI-H929 cells assessed as accumulation of cells at S phase at 0.5 uM measured after 24 hrs by flow cytometry analysis (reference value: 32.14%); assay type: functional
NCI-H929 [17] = experiment: Induction of cell cycle arrest in human NCI-H929 cells assessed as accumulation of cells at G2 phase at 0.5 uM measured after 24 hrs by flow cytometry analysis (reference value: 13.37%); assay type: functional
NCI-H929 [18] = experiment: Induction of cell cycle arrest in human NCI-H929 cells assessed as inhibition of CMYC protein expression at 0.1 to 1 uM; assay type: functional, cell-based; conditions: dose 0.1-1 µM
MM.1R [19] = experiment: Induction of cell cycle arrest in human MM1.R cells assessed as inhibition of CDC2 protein expression at 0.1 to 1 uM; assay type: functional, cell-based; conditions: dose 0.1-1 µM
MM.1R [20] = experiment: Induction of cell cycle arrest in human MM1.R cells assessed as inhibition of cyclin B1 protein expression at 0.1 to 1 uM; assay type: functional, cell-based; conditions: dose 0.1-1 µM
MM.1R [21] = experiment: Induction of cell cycle arrest in human MM1.R cells assessed as inhibition of cyclin E1 protein expression at 0.1 to 1 uM; assay type: functional, cell-based; conditions: dose 0.1-1 µM
MM.1R [22] = experiment: Induction of cell cycle arrest in human MM1.R cells assessed as inhibition of CMYC protein expression at 0.1 to 1 uM; assay type: functional, cell-based; conditions: dose 0.1-1 µM
NCI-H929 [23] = experiment: Antitumor activity against human NCI-H929 cells xenografted in Balb/C nude mouse model assessed as inhibition of tumor volume measured after 34 days; assay type: functional; conditions: dose 12.5-25 mg/kg, time 34.0 day
[24] = Toxicity in Balb/C nude mouse assessed as changes in main organ at 12.5 to 25 mg/kg administered once daily and measured every three days for 34 days by H and E staining based analysis; assay type: organism-based; conditions: in vivo, 816 h, dose 12.5-25 mg/kg, time 34 day
NCI-H929 [25] = experiment: Antitumor activity against human NCI-H929 cells xenografted in Balb/C nude mouse model assessed as reduction in Ki67 expression at 25 mg/kg by immunohistochemical staining based analysis; assay type: functional, organism-based
NCI-H929 [26] = experiment: Antitumor activity against human NCI-H929 cells xenografted in Balb/C nude mouse model assessed as inhibition of […] expression at 25 mg/kg by Western blot analysis; assay type: functional, organism-based
[27] = molecular target: T1, Interferon regulatory factor 4; experiment: Inhibition of IRF4 (unknown origin) incubated for 1 hr by fluorescence polarization assay
[28] = Clearance in ICR mouse plasma at 1.0 mg/kg, iv; assay type: ADME, organism-based
[29] = Oral bioavailability in ICR mouse plasma at 10 mg/kg; assay type: ADME, organism-based

- Kd [1]: 1280 nM
- Activity [2]: Active
- Activity [3]: inactive
- IC50 [27]: 2630 nM
- clearance [28]: 197 mL/min/kg
- bioavailability [29]: 53.9%
Structure (SMILES): COc1ccc(NC(=O)[C@@H](C)[C@H]2CC[C@H]3[C@@H]4C(=O)C=C5C(C)(C)C(=O)C(C#N)=C[C@]5(C)[C@H]4CC[C@]23C)cc1
- Activity (NCI-H929 [4]): Active
- Activity (NCI-H929 [5]): Active
- Activity (MM.1R [6]): Active
- Activity (RPMI-8226): Active; Compound Showed Low Expression
- Ratio IC50 [7]: 30
- Activity (NCI-H929 [8]): Dose-dependent-effect
- Activity (NCI-H929 [9]): Active
- Activity (MM.1R [10]): Active
- Activity (MM.1R [11]): Active
- Activity (NCI-H929 [12]): Active
- Activity (MM.1R [13]): Active
- Activity (NCI-H929 [14]): Dose-dependent-effect
- Activity (NCI-H929 [15]): 30.67%
- Activity (NCI-H929 [16]): 20.54%
- Activity (NCI-H929 [17]): 10.56%
- Activity (NCI-H929 [18]): Active
- Activity (MM.1R [19]): Active
- Activity (MM.1R [20]): Active
- Activity (MM.1R [21]): Active
- Activity (MM.1R [22]): Active
- Activity (NCI-H929 [23]): Active; More Effective Than Lenalidomide
- Activity [24]: Non-toxic
- Activity (NCI-H929 [25]): Active
- Activity (NCI-H929 [26]): Active
